Read-outs that look alike come from different tables or passages of the source.
Tests used:
[1] = Cytotoxicity assay for HepG2 (MTT); assay type: cell-based, human; details: human
Description: (§1) Mammalian cytotoxicity assays were performed by Cyprotex. Cytotoxicity was assessed using the MTT assay. Briefly, HepG2 human hepatocellular carcinoma cells (100 μL per well) were plated on black-walled clear-bottomed polystyrene 96-well tissue culture treated plates 24 h prior to dosing the cells. The cells were dosed with test compound (dissolved in 0.5% DMSO in growth media containing 10% FBS) at a range of concentrations (0.04 μM, 0.1 μM, 0.4 μM, 1 μM, 4 μM, 10 μM, 40 μM, 100 μM). After 23 h period the cells were loaded with the MTT dye (yellow; 3-(4,5-dimethyl-2-thiazolyl)-2,5-diphenyl-2H-tetrazolium bromide) followed by an additional 1 h incubation (resulting in a total incubation time with antibiotics of 24 h). Subsequently, the plates are dried and solubilized in DMSO followed by scanning at 570 nm using a microplate absorbance reader. Cell viability is determined by conversion of the soluble MTT to insoluble formazan (purple) by mitochondrial […] in live cells. Production of formazan indicates […]. Carbonyl cyanide 3-chlorophenylhydrazone is used as no response control and chlorpromazine is used as control known to be cytotoxic. Solvent control wells (0.5% DMSO in growth media containing 10% FBS) are then used to determine significance limits for wells that have a greater than expected fraction of low or high responders. The minimum effective concentration is determined from the lowest concentration whose mean value exceeds the significance level, provided either a clear dose-response relationship is observed, or at least two consecutive concentration points are above the significance level. AC50 values are also determined provided a clear dose-response relationship is observed. Experiment was performed in triplicates.

MRSA USA 300 = experiment: Resistance development serial passage assay; assay type: cell-based, Staphylococcus aureus; details: MRSA serially passaged over 30 days in sub-lethal antibiotic concentrations
Description: (§2) FIG. 3 illustrates the results obtained when selected compounds were assessed using a resistance development serial passage assay. A) Daily fold-increase of MIC compared to initial MIC against MRSA USA 300 grown in sub-lethal concentrations of daptomycin, compound 5 or compound 16 over 30 days. B). Daily fold-increase of MIC compared to initial MIC against VRE E155 grown in sub-lethal concentrations of daptomycin, compound 5 or compound 16 over 30 days.
(§3) From glycerol stocks, bacterial strains were cultured on blood agar plates and incubated overnight at 37° C. A single colony was grown to exponential phase (OD600=0.5) in TSB+0.002% p80 and diluted 1:100 in fresh media. In polypropylene 96-well microtiter plates, antibiotics were added in biological triplicates and serial diluted 2-fold by transfer and mixing from one well to the next to achieve a final volume of 50 μL per well. An equal volume of bacterial suspension was added to the wells and plates were incubated overnight at 37° C. […] This procedure was repeated for 30 days and the MIC was recorded daily. Cultures containing daptomycin were supplemented with 50 mg L^−1 CaCl2 and 10 mg L^−1 MgSO4. The experiment was performed in biological replicates and for each replicate the MIC was determined from the median of a minimum of triplicates.

VRE E155 = experiment: Resistance development serial passage assay; assay type: cell-based, Enterococcus faecium; details: VanA-type VRE strain serially passaged over 30 days in sub-lethal antibiotic concentrations
Description: as §2, §3

[2] = system: HepG2 human hepatocellular carcinoma cells; experiment: Cytotoxicity assay for HepG2 (MTT); assay type: cell-based
Description: as §1

With `N#CC(C#N)=NNc1cccc(Cl)c1` [carbonyl cyanide 3-chlorophenylhydrazone] the AC50 at 24 h ([1]; HepG2 human hepatocellular carcinoma cells, MTT, HepG2, 24 h, 10% FBS, n = 3, read-out: AC50) was greater than 100 µM.

For `CCCCCCCCCC(=O)N[C@@H](Cc1c[nH]c2ccccc12)C(=O)N[C@H](CC(N)=O)C(=O)N[C@@H](CC(=O)O)C(=O)N[C@@H]1C(=O)NCC(=O)N[C@@H](CCCN)C(=O)N[C@@H](CC(=O)O)C(=O)N[C@H](C)C(=O)N[C@@H](CC(=O)O)C(=O)NCC(=O)N[C@H](CO)C(=O)N[C@@H]([C@H](C)CC(=O)O)C(=O)N[C@@H](CC(=O)c2ccccc2N)C(=O)O[C@@H]1C` [daptomycin, reference compound], the “resistance induction, fold-increase of MIC compared to initial MIC” value (MRSA USA 300) was 16 fold and the “resistance induction, fold-increase of MIC compared to initial MIC” value (VRE E155) was 128 fold.

With `CN(C)CCCN1c2ccccc2Sc2ccc(Cl)cc21` [Chropromazine] the AC50 at 24 h [1] was 19 µM, the “Direction of response (↑↓)” value [2] was “↓” and the MEC ([2]; human, 24 h) was 12.4 µM.

— patent US20230174584A1, “Antibiotic Compounds” (priority 2019, published 2023)
